Reference: patent US20230085307A1, “PYRIDAZINONE COMPOUND AND HERBICIDE” (NISSAN CHEMICAL CORPORATION, priority 2019, published 2023)

Key:
barnyard grass [1] = experiment: Test Example 3: herbicidal effect by foliage application, Wagner pot (Table 18, symbol H); type: in vivo, barnyard grass (Echinochloa crus-galli); details: 320 g/ha
Procedure, shortened: (§1)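 Plants were sown in alluvial soil held under 0.1–0.5 cm standing water and grown 14 days in a greenhouse at 25–30 °C. An emulsifiable formulation, water-diluted to the set dose, was then sprayed onto the foliage, and effects were scored three weeks later using previously defined criteria.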

Chinese sprangletop = experiment: Test Example 3: herbicidal effect by foliage application, Wagner pot (Table 18, symbol D); type: in vivo, chinese sprangletop (Leptochloa chinensis); details: 320 g/ha
Procedure, shortened: as §1

rice flat sedge = experiment: Test Example 3: herbicidal effect by foliage application, Wagner pot (Table 18, symbol E); type: in vivo, rice flat sedge (Cyperus iria); details: 320 g/ha
Procedure, shortened: as §1

southern crabgrass [2] = experiment: Test Example 4: herbicidal effect by soil treatment (Table 19, symbol F); type: in vivo, southern crabgrass (Digitaria ciliaris); details: amount of applied herbicide 320 g/ha
Procedure, shortened: (§2)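 In this soil treatment, the formulated compound reached the seeds only through the soil: seeds were buried about 1.5 cm deep in sterilized diluvial soil, then the diluted emulsion was sprayed over the surface. After three weeks at 25° C. to 30° C. in a greenhouse, effects were graded on criteria from an earlier test.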

barnyard grass [3] = experiment: Test Example 4: herbicidal effect by soil treatment (Table 19, symbol H); type: in vivo, barnyard grass (Echinochloa crus-galli); details: amount of applied herbicide 320 g/ha
Procedure, shortened: as §2

wild oat [4] = experiment: Test Example 4: herbicidal effect by soil treatment (Table 19, symbol I); type: in vivo, wild oat (Avena fatua); details: amount of applied herbicide 320 g/ha
Procedure, shortened: as §2

blackgrass [5] = experiment: Test Example 4: herbicidal effect by soil treatment (Table 19, symbol J); type: in vivo, blackgrass (Alopecurus myosuroides); details: amount of applied herbicide 320 g/ha
Procedure, shortened: as §2

Italian ryegrass [6] = experiment: Test Example 4: herbicidal effect by soil treatment (Table 19, symbol K); type: in vivo, Italian ryegrass (Lolium multiflorum); details: amount of applied herbicide 320 g/ha
Procedure, shortened: as §2

windgrass [7] = experiment: Test Example 4: herbicidal effect by soil treatment (Table 19, symbol L); type: in vivo, windgrass (Apera spica-venti); details: amount of applied herbicide 320 g/ha
Procedure, shortened: as §2

velvetleaf [8] = experiment: Test Example 4: herbicidal effect by soil treatment (Table 19, symbol M); type: in vivo, velvetleaf (Abutilon theophrasti); details: amount of applied herbicide 320 g/ha
Procedure, shortened: as §2

redroot pigweed [9] = experiment: Test Example 4: herbicidal effect by soil treatment (Table 19, symbol N); type: in vivo, redroot pigweed (Amaranthus retroflexus); details: amount of applied herbicide 320 g/ha
Procedure, shortened: as §2

lambsquarters [10] = experiment: Test Example 4: herbicidal effect by soil treatment (Table 19, symbol O); type: in vivo, lambsquarters (Chenopodium album); details: amount of applied herbicide 320 g/ha
Procedure, shortened: as §2

chickweed [11] = experiment: Test Example 4: herbicidal effect by soil treatment (Table 19, symbol P); type: in vivo, common chickweed (Stellaria media); details: amount of applied herbicide 320 g/ha
Procedure, shortened: as §2

false cleavers [12] = experiment: Test Example 4: herbicidal effect by soil treatment (Table 19, symbol Q); type: in vivo, false cleavers (Galium spurium); details: amount of applied herbicide 320 g/ha
Procedure, shortened: as §2

persian speedwell [13] = experiment: Test Example 4: herbicidal effect by soil treatment (Table 19, symbol R); type: in vivo, Persian speedwell (Veronica persica); details: amount of applied herbicide 320 g/ha
Procedure, shortened: as §2

southern crabgrass [14] = experiment: Test Example 5: herbicidal effect by foliage application, plastic box (Table 20, symbol F); type: in vivo, southern crabgrass (Digitaria ciliaris); details: foliage application, 320 g/ha, three weeks after application
Procedure, shortened: (§3)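 Plants were sown into sterilized diluvial soil under about 1.5 cm cover and kept in a greenhouse at 25° C. to 30° C. Fourteen days on, foliage received an even spray of the diluted emulsion. Herbicidal or crop effect was judged three weeks afterwards.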

green foxtail [15] = experiment: Test Example 5: herbicidal effect by foliage application, plastic box (Table 20, symbol G); type: in vivo, green foxtail (Setaria viridis); details: foliage application, 320 g/ha, three weeks after application
Procedure, shortened: as §3

barnyard grass [16] = experiment: Test Example 5: herbicidal effect by foliage application, plastic box (Table 20, symbol H); type: in vivo, barnyard grass (Echinochloa crus-galli); details: foliage application, 320 g/ha, three weeks after application
Procedure, shortened: as §3

wild oat [17] = experiment: Test Example 5: herbicidal effect by foliage application, plastic box (Table 20, symbol I); type: in vivo, wild oat (Avena fatua); details: foliage application, 320 g/ha, three weeks after application
Procedure, shortened: as §3

blackgrass [18] = experiment: Test Example 5: herbicidal effect by foliage application, plastic box (Table 20, symbol J); type: in vivo, blackgrass (Alopecurus myosuroides); details: foliage application, 320 g/ha, three weeks after application
Procedure, shortened: as §3

Italian ryegrass [19] = experiment: Test Example 5: herbicidal effect by foliage application, plastic box (Table 20, symbol K); type: in vivo, Italian ryegrass (Lolium multiflorum); details: foliage application, 320 g/ha, three weeks after application
Procedure, shortened: as §3

windgrass [20] = experiment: Test Example 5: herbicidal effect by foliage application, plastic box (Table 20, symbol L); type: in vivo, windgrass (Apera spica-venti); details: foliage application, 320 g/ha, three weeks after application
Procedure, shortened: as §3

velvetleaf [21] = experiment: Test Example 5: herbicidal effect by foliage application, plastic box (Table 20, symbol M); type: in vivo, velvetleaf (Abutilon theophrasti); details: foliage application, 320 g/ha, three weeks after application
Procedure, shortened: as §3

redroot pigweed [22] = experiment: Test Example 5: herbicidal effect by foliage application, plastic box (Table 20, symbol N); type: in vivo, redroot pigweed (Amaranthus retroflexus); details: foliage application, 320 g/ha, three weeks after application
Procedure, shortened: as §3

lambsquarters [23] = experiment: Test Example 5: herbicidal effect by foliage application, plastic box (Table 20, symbol O); type: in vivo, lambsquarters (Chenopodium album); details: foliage application, 320 g/ha, three weeks after application
Procedure, shortened: as §3

chickweed [24] = experiment: Test Example 5: herbicidal effect by foliage application, plastic box (Table 20, symbol P); type: in vivo, common chickweed (Stellaria media); details: foliage application, 320 g/ha, three weeks after application
Procedure, shortened: as §3

false cleavers [25] = experiment: Test Example 5: herbicidal effect by foliage application, plastic box (Table 20, symbol Q); type: in vivo, false cleavers (Galium spurium); details: foliage application, 320 g/ha, three weeks after application
Procedure, shortened: as §3

persian speedwell [26] = experiment: Test Example 5: herbicidal effect by foliage application, plastic box (Table 20, symbol R); type: in vivo, Persian speedwell (Veronica persica); details: foliage application, 320 g/ha, three weeks after application
Procedure, shortened: as §3

green foxtail [27] = experiment: Test Example 4: herbicidal effect by soil treatment (Table 19, symbol G); type: in vivo, green foxtail (Setaria viridis); details: amount of applied herbicide 320 g/ha
Procedure, shortened: as §2

CSc1ccc(-c2sc3ccccc3c2-c2c(O)c(C)nn(C)c2=O)cc1 [1-036]
herbicidal effect on H (barnyard grass), rating 0-5 (barnyard grass [1]): 5 (Herbicidal rate of 90% or more (almost completely withered))
herbicidal effect on D (Chinese sprangletop), rating 0-5 (Chinese sprangletop): 3 (Herbicidal rate of 40% or more and less than 70%)
herbicidal effect on E (rice flat sedge), rating 0-5 (rice flat sedge): 5 (Herbicidal rate of 90% or more (almost completely withered))
herbicidal effect rating, F: southern crabgrass (southern crabgrass [2]): 0 (Herbicidal rate of 5% or less (almost no effect))
herbicidal effect rating, H: barnyard grass (barnyard grass [3]): 4 (Herbicidal rate of 70% or more and less than 90%)
herbicidal effect rating, I: wild oat (wild oat [4]): 0 (Herbicidal rate of 5% or less (almost no effect))
herbicidal effect rating, J: blackgrass (blackgrass [5]): 0 (Herbicidal rate of 5% or less (almost no effect))
herbicidal effect rating, K: Italian ryegrass (Italian ryegrass [6]): 5 (Herbicidal rate of 90% or more (almost completely withered))
herbicidal effect rating, L: windgrass (windgrass [7]): 0 (Herbicidal rate of 5% or less (almost no effect))
herbicidal effect rating, M: velvetleaf (velvetleaf [8]): 2 (Herbicidal rate of 20% or more and less than 40%)
herbicidal effect rating, N: redroot pigweed (redroot pigweed [9]): 5 (Herbicidal rate of 90% or more (almost completely withered))
herbicidal effect rating, O: lambsquarters (lambsquarters [10]): 5 (Herbicidal rate of 90% or more (almost completely withered))
herbicidal effect rating, P: chickweed (chickweed [11]): 5 (Herbicidal rate of 90% or more (almost completely withered))
herbicidal effect rating, Q: false cleavers (false cleavers [12]): 0 (Herbicidal rate of 5% or less (almost no effect))
herbicidal effect rating, R: persian speedwell (persian speedwell [13]): 5 (Herbicidal rate of 90% or more (almost completely withered))
herbicidal effect grade, F: southern crabgrass (southern crabgrass [14]): 0 (Herbicidal rate of 5% or less (almost no effect))
herbicidal effect grade, G: green foxtail (green foxtail [15]): 4 (Herbicidal rate of 70% or more and less than 90%)
herbicidal effect grade, H: barnyard grass (barnyard grass [16]): 4 (Herbicidal rate of 70% or more and less than 90%)
herbicidal effect grade, I: wild oat (wild oat [17]): 2 (Herbicidal rate of 20% or more and less than 40%)
herbicidal effect grade, J: blackgrass (blackgrass [18]): 4 (Herbicidal rate of 70% or more and less than 90%)
herbicidal effect grade, K: Italian ryegrass (Italian ryegrass [19]): 4 (Herbicidal rate of 70% or more and less than 90%)
herbicidal effect grade, L: windgrass (windgrass [20]): 3 (Herbicidal rate of 40% or more and less than 70%)
herbicidal effect grade, M: velvetleaf (velvetleaf [21]): 5 (Herbicidal rate of 90% or more (almost completely withered))
herbicidal effect grade, N: redroot pigweed (redroot pigweed [22]): 5 (Herbicidal rate of 90% or more (almost completely withered))
herbicidal effect grade, O: lambsquarters (lambsquarters [23]): 4 (Herbicidal rate of 70% or more and less than 90%)
herbicidal effect grade, P: chickweed (chickweed [24]): 5 (Herbicidal rate of 90% or more (almost completely withered))
herbicidal effect grade, Q: false cleavers (false cleavers [25]): 4 (Herbicidal rate of 70% or more and less than 90%)
herbicidal effect grade, R: persian speedwell (persian speedwell [26]): 5 (Herbicidal rate of 90% or more (almost completely withered))

CCCC(=O)Oc1c(C)nn(C)c(=O)c1-c1c(-c2ccc3c(c2)OCCO3)sc2cc(Cl)ccc12 [3-048]
herbicidal effect on barnyard grass (H) (barnyard grass [1]): 4 (Herbicidal rate of 70% or more and less than 90%)
herbicidal effect on Chinese sprangletop (D) (Chinese sprangletop): 0 (Herbicidal rate of 5% or less (almost no effect))
herbicidal effect on rice flat sedge (E) (rice flat sedge): 2 (Herbicidal rate of 20% or more and less than 40%)
F: southern crabgrass, herbicidal effect grade (southern crabgrass [2]): 0 (Herbicidal rate of 5% or less (almost no effect))
G: green foxtail, herbicidal effect grade (green foxtail [27]): 0 (Herbicidal rate of 5% or less (almost no effect))
H: barnyard grass, herbicidal effect grade (barnyard grass [3]): 0 (Herbicidal rate of 5% or less (almost no effect))
I: wild oat, herbicidal effect grade (wild oat [4]): 0 (Herbicidal rate of 5% or less (almost no effect))
J: blackgrass, herbicidal effect grade (blackgrass [5]): 0 (Herbicidal rate of 5% or less (almost no effect))
K: Italian ryegrass, herbicidal effect grade (Italian ryegrass [6]): 0 (Herbicidal rate of 5% or less (almost no effect))
L: windgrass, herbicidal effect grade (windgrass [7]): 0 (Herbicidal rate of 5% or less (almost no effect))
M: velvetleaf, herbicidal effect grade (velvetleaf [8]): 0 (Herbicidal rate of 5% or less (almost no effect))
N: redroot pigweed, herbicidal effect grade (redroot pigweed [9]): 0 (Herbicidal rate of 5% or less (almost no effect))
O: lambsquarters, herbicidal effect grade (lambsquarters [10]): 0 (Herbicidal rate of 5% or less (almost no effect))
P: chickweed, herbicidal effect grade (chickweed [11]): 1 (Herbicidal rate of 5% or more and less than 20%)
Q: false cleavers, herbicidal effect grade (false cleavers [12]): 4 (Herbicidal rate of 70% or more and less than 90%)
R: persian speedwell, herbicidal effect grade (persian speedwell [13]): 0 (Herbicidal rate of 5% or less (almost no effect))
F: southern crabgrass, herbicidal effect grade (southern crabgrass [14]): 0 (Herbicidal rate of 5% or less (almost no effect))
G: green foxtail, herbicidal effect grade (green foxtail [15]): 0 (Herbicidal rate of 5% or less (almost no effect))
H: barnyard grass, herbicidal effect grade (barnyard grass [16]): 0 (Herbicidal rate of 5% or less (almost no effect))
I: wild oat, herbicidal effect grade (wild oat [17]): 0 (Herbicidal rate of 5% or less (almost no effect))
J: blackgrass, herbicidal effect grade (blackgrass [18]): 0 (Herbicidal rate of 5% or less (almost no effect))
K: Italian ryegrass, herbicidal effect grade (Italian ryegrass [19]): 0 (Herbicidal rate of 5% or less (almost no effect))
L: windgrass, herbicidal effect grade (windgrass [20]): 0 (Herbicidal rate of 5% or less (almost no effect))
M: velvetleaf, herbicidal effect grade (velvetleaf [21]): 1 (Herbicidal rate of 5% or more and less than 20%)
N: redroot pigweed, herbicidal effect grade (redroot pigweed [22]): 3 (Herbicidal rate of 40% or more and less than 70%)
O: lambsquarters, herbicidal effect grade (lambsquarters [23]): 3 (Herbicidal rate of 40% or more and less than 70%)
P: chickweed, herbicidal effect grade (chickweed [24]): 5 (Herbicidal rate of 90% or more (almost completely withered))
Q: false cleavers, herbicidal effect grade (false cleavers [25]): 4 (Herbicidal rate of 70% or more and less than 90%)
